# Assay results: the supplement of paper PMC10307832
# Experiments:
# Test in all cases: relative viability (nuclei count vs DMSO), 5 days (fraction); higher = more cells survive
# NCI-H2347 = system: NCI-H2347
# Summary of the method: (§1)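 Nuclei were stained with Hoechst during a one-step fixation (final 0.05% Triton X-100, 1% formaldehyde, 1 ug/ml Hoechst) carried out 5 days after dosing, then counted on 4× images. The cells, lung cancer lines in 1536-well plates, had been dosed by pin tool the day after seeding with one drug alone or a fixed anchor-drug dose plus five library-drug doses (not always all listed) in √10 steps. Relative viability is the nuclei count in treated wells divided by that in vehicle wells, and each value is the median of duplicate plates.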
# COR-L23 = system: COR-L23
# Summary of the method: as §1
# HOP-62 = system: HOP-62
# Summary of the method: as §1
# NCI-H1993 = system: NCI-H1993
# Summary of the method: as §1
# NCI-H647 = system: NCI-H647
# Summary of the method: as §1
# SK-MES-1 = system: SK-MES-1
# Summary of the method: as §1
# NCI-H1792 = system: NCI-H1792
# Summary of the method: as §1
# NCI-H522 = system: NCI-H522
# Summary of the method: as §1
# NCI-H1734 = system: NCI-H1734
# Summary of the method: as §1
# COR-L 105 = system: COR-L 105
# Summary of the method: as §1
# NCI-H2228 = system: NCI-H2228
# Summary of the method: as §1
# UMC-11 = system: UMC-11
# Summary of the method: as §1
# NCI-H1395 = system: NCI-H1395
# Summary of the method: as §1
# HARA = system: HARA
# Summary of the method: as §1
# NCI-H1755 = system: NCI-H1755
# Summary of the method: as §1
# NCI-H838 = system: NCI-H838
# Summary of the method: as §1
# NCI-H1793 = system: NCI-H1793
# Summary of the method: as §1
# NCI-H2170 = system: NCI-H2170
# Summary of the method: as §1
# NCI-H358 = system: NCI-H358
# Summary of the method: as §1
# HCC-15 = system: HCC-15
# Summary of the method: as §1
# NCI-H2009 = system: NCI-H2009
# Summary of the method: as §1
# NCI-H1355 = system: NCI-H1355
# Summary of the method: as §1
smiles,measurement,setting,value
O=c1cc(N2CCOCC2)oc2c(-c3cccc4c3sc3ccccc34)cccc12 + N=C(N)NC(=N)NCCc1ccccc1 [Phenformin] (partner 250 µM),relative viability,NCI-H2347; first compound 0.01 µM,0.545
same,relative viability,NCI-H2347; first compound 0.03162 µM,0.318
same,relative viability,NCI-H2347; first compound 0.1 µM,0.376
same,relative viability,NCI-H2347; first compound 0.3162 µM,0.419
same,relative viability,NCI-H2347; first compound 1 µM,0.317
same,relative viability,COR-L23; first compound 0.01 µM,0.439
same,relative viability,COR-L23; first compound 0.03162 µM,0.466
same,relative viability,COR-L23; first compound 0.1 µM,0.43
same,relative viability,COR-L23; first compound 0.3162 µM,0.411
same,relative viability,COR-L23; first compound 1 µM,0.449
same,relative viability,HOP-62; first compound 0.01 µM,0.555
same,relative viability,HOP-62; first compound 0.03162 µM,0.735
same,relative viability,HOP-62; first compound 0.1 µM,0.671
same,relative viability,HOP-62; first compound 0.3162 µM,0.575
same,relative viability,HOP-62; first compound 1 µM,0.704
same,relative viability,NCI-H1993; first compound 0.01 µM,0.61
same,relative viability,NCI-H1993; first compound 0.03162 µM,0.508
same,relative viability,NCI-H1993; first compound 0.1 µM,0.506
same,relative viability,NCI-H1993; first compound 0.3162 µM,0.483
same,relative viability,NCI-H1993; first compound 1 µM,0.556
same,relative viability,NCI-H647; first compound 0.01 µM,0.547
same,relative viability,NCI-H647; first compound 0.03162 µM,0.643
same,relative viability,NCI-H647; first compound 0.1 µM,0.319
same,relative viability,NCI-H647; first compound 0.3162 µM,0.526
same,relative viability,NCI-H647; first compound 1 µM,0.715
same,relative viability,SK-MES-1; first compound 0.01 µM,0.652
same,relative viability,SK-MES-1; first compound 0.03162 µM,0.688
same,relative viability,SK-MES-1; first compound 0.1 µM,0.688
same,relative viability,SK-MES-1; first compound 0.3162 µM,0.671
same,relative viability,SK-MES-1; first compound 1 µM,0.668
same,relative viability,NCI-H1792; first compound 0.01 µM,0.26
same,relative viability,NCI-H1792; first compound 0.03162 µM,0.202
same,relative viability,NCI-H1792; first compound 0.1 µM,0.213
same,relative viability,NCI-H1792; first compound 0.3162 µM,0.32
same,relative viability,NCI-H1792; first compound 1 µM,0.184
same,relative viability,NCI-H522; first compound 0.01 µM,0.724
same,relative viability,NCI-H522; first compound 0.03162 µM,0.662
same,relative viability,NCI-H522; first compound 0.1 µM,0.572
same,relative viability,NCI-H522; first compound 0.3162 µM,0.621
same,relative viability,NCI-H522; first compound 1 µM,0.618
same,relative viability,NCI-H1734; first compound 0.01 µM,0.379
same,relative viability,NCI-H1734; first compound 0.03162 µM,0.379
same,relative viability,NCI-H1734; first compound 0.1 µM,0.403
same,relative viability,NCI-H1734; first compound 0.3162 µM,0.388
same,relative viability,NCI-H1734; first compound 1 µM,0.352
same,relative viability,COR-L 105; first compound 0.01 µM,0.462
same,relative viability,COR-L 105; first compound 0.03162 µM,0.497
same,relative viability,COR-L 105; first compound 0.1 µM,0.607
same,relative viability,COR-L 105; first compound 0.3162 µM,0.568
same,relative viability,COR-L 105; first compound 1 µM,0.383
same,relative viability,NCI-H2228; first compound 0.01 µM,0.372
same,relative viability,NCI-H2228; first compound 0.03162 µM,0.391
same,relative viability,NCI-H2228; first compound 0.1 µM,0.262
same,relative viability,NCI-H2228; first compound 0.3162 µM,0.259
same,relative viability,NCI-H2228; first compound 1 µM,0.37
same,relative viability,UMC-11; first compound 0.01 µM,0.352
same,relative viability,UMC-11; first compound 0.03162 µM,0.316
same,relative viability,UMC-11; first compound 0.1 µM,0.353
same,relative viability,UMC-11; first compound 0.3162 µM,0.36
same,relative viability,UMC-11; first compound 1 µM,0.336
same,relative viability,NCI-H1395; first compound 0.01 µM,0.435
same,relative viability,NCI-H1395; first compound 0.03162 µM,0.45
same,relative viability,NCI-H1395; first compound 0.1 µM,0.417
same,relative viability,NCI-H1395; first compound 0.3162 µM,0.461
same,relative viability,NCI-H1395; first compound 1 µM,0.447
same,relative viability,HARA; first compound 0.01 µM,0.414
same,relative viability,HARA; first compound 0.03162 µM,0.472
same,relative viability,HARA; first compound 0.1 µM,0.416
same,relative viability,HARA; first compound 0.3162 µM,0.502
same,relative viability,HARA; first compound 1 µM,0.482
same,relative viability,NCI-H1755; first compound 0.01 µM,0.652
same,relative viability,NCI-H1755; first compound 0.03162 µM,0.694
same,relative viability,NCI-H1755; first compound 0.1 µM,0.655
same,relative viability,NCI-H1755; first compound 0.3162 µM,0.614
same,relative viability,NCI-H1755; first compound 1 µM,0.605
same,relative viability,NCI-H838; first compound 0.01 µM,0.473
same,relative viability,NCI-H838; first compound 0.03162 µM,0.547
same,relative viability,NCI-H838; first compound 0.1 µM,0.534
same,relative viability,NCI-H838; first compound 0.3162 µM,0.6
same,relative viability,NCI-H838; first compound 1 µM,0.543
same,relative viability,NCI-H1793; first compound 0.01 µM,0.386
same,relative viability,NCI-H1793; first compound 0.1 µM,0.345
same,relative viability,NCI-H1793; first compound 0.3162 µM,0.375
same,relative viability,NCI-H1793; first compound 1 µM,0.363
same,relative viability,NCI-H2170; first compound 0.01 µM,0.401
same,relative viability,NCI-H2170; first compound 0.03162 µM,0.422
same,relative viability,NCI-H2170; first compound 0.1 µM,0.462
same,relative viability,NCI-H2170; first compound 0.3162 µM,0.384
same,relative viability,NCI-H2170; first compound 1 µM,0.39
same,relative viability,NCI-H358; first compound 0.01 µM,0.339
same,relative viability,NCI-H358; first compound 0.03162 µM,0.35
same,relative viability,NCI-H358; first compound 0.1 µM,0.351
same,relative viability,NCI-H358; first compound 0.3162 µM,0.325
same,relative viability,NCI-H358; first compound 1 µM,0.322
same,relative viability,HCC-15; first compound 0.01 µM,0.47
same,relative viability,HCC-15; first compound 0.03162 µM,0.481
same,relative viability,HCC-15; first compound 0.1 µM,0.596
same,relative viability,HCC-15; first compound 0.3162 µM,0.481
same,relative viability,HCC-15; first compound 1 µM,0.498
same,relative viability,NCI-H2009; first compound 0.01 µM,0.471
same,relative viability,NCI-H2009; first compound 0.03162 µM,0.504
same,relative viability,NCI-H2009; first compound 0.1 µM,0.487
same,relative viability,NCI-H2009; first compound 0.3162 µM,0.492
same,relative viability,NCI-H2009; first compound 1 µM,0.464
same,relative viability,NCI-H1355; first compound 0.01 µM,0.45
same,relative viability,NCI-H1355; first compound 0.03162 µM,0.446
same,relative viability,NCI-H1355; first compound 0.1 µM,0.316
same,relative viability,NCI-H1355; first compound 0.3162 µM,0.447
same,relative viability,NCI-H1355; first compound 1 µM,0.42
